Data from patent US20100184596A1, “METHOD FOR THE CONTROL OF WEEDS IN TURF” (SYNGENTA CROP PROTECTION, INC., priority 2007, published 2010).

Tests used:
Format in all cases: in vivo
[1] = system: Perennial ryegrass v. blend of Bright Star, Citation Fore and Quick Trans; assay: Phytotoxicity of granule formulations with safeners (Table B4.5); conditions: 8 DAT
Description: The phytotoxicity to turfgrass of the compound of formula I in combination with various safeners was tested. The combinations were applied by post emergence spray application. Percentage phytotoxicity assessments were taken at various timepoints. The safeners tested in these trials were cloquintocet-mexyl, cyprosulfamide, a compound of formula 2.3, and isoxadifen-ethyl.
Tables B4.4 and B4.5 present the results of trials using safeners applied in combination with granule formulations of the compound of formula I.

Dandelion = assay: Selective post-emergence herbicidal action, field trial Hudson (Table B1.2); conditions: 28 days after application
Description: (§1) The selectivity of the compound of formula I in turf (removal of grassy and broadleaf weeds) has been tested in turfgrass varieties selected from Kentucky bluegrass, tall fescue and perennial ryegrass and in […] selected from clover (an aggressive perennial weed) and dandelion (a weed of perennial horticultural crops and gardens which may also be a problem in some annual crops, particularly where reduced tillage is practiced).
(§2) The trials were conducted in Champaign, Ill., U.S. (Table B1.1) and Hudson, N.Y., U.S. (Table B1.2) under field conditions. Turfgrasses were maintained at approximately a 2.5″ height, like a home lawn. Mixed turf and weed stands were present. The test compounds were applied with a CO2 pressurized backpack sprayer by spraying in the form of an aqueous suspension (prepared from a wettable powder) in a concentration of 210 to 280 g/ha. The plots were then mowed and irrigated as needed. After 22 and 28 days respectively, the test is visually evaluated (100%=total damage to plant; 0%=no damage to plant).

Tall fescue = assay: as above; conditions: 28 days after application
Description: as §1, §2

Bluegrass/fescue mix = assay: Phytotoxicity via post emergence spray application (Table B2.7); conditions: 1 appl
Description: The phytotoxicity of the compound of formula I to turfgrass species was tested. The compound was applied via post emergence spray to a range of warm and cool season turfgrass species at various rates and spray treatment treatment regimes. Percentage phytotoxicity assessments were taken at various timepoints.

[2] = system: Trifolium repens (white clover); assay: Weed control of granule formulations, in St. Augustinegrass V. Delmar (Table B6.1)
Description: Two granule formulations were made and tested. Granule A is an inert granule formulation, comprising 99.06 wt % DG Lite 150 granules, 0.14 wt % compound of formula I, 0.50 wt % Sunspray 6N, and 0.30 wt % HiSil 233. The compound of formula I was added to the DG Lite granules while blending in a Continental Rollo-mixer.
Sunspray 6N oil was then sprayed onto the granules, and HiSil added to dry excess liquid and improve granule flowability. The granules were blended in the mixer for 20-30 minutes until homogeneous, and passed through a −12/+60 mesh to remove over and under sized particles.
Granule B is a fertiliser granule formulation, comprising 54.65 wt % urea, 6.63 wt % triple super phosphate, 4.95 wt % potassion chloride, 9.91 wt % huber clay, 7.22 wt % HiSil 233, 0.16 wt % compound of formula I, […] agnique ME 181, 2.07 wt % stepfac 8180, and 11.98 wt % water. […] The remaining HiSil was added and granules dried at 40-60° C., to remove excess liquid. Finally, the granules were passed through a −12/+60 mesh to remove over and under sized particles.
The weed control efficacy of the compound of formula I was tested. […] All treatments were watered-in 1 day after application. Percentage weed control assessments were taken at various timepoints.

[3] = system: Perennial ryegrass v. blend of Bright Star, Citation Fore and Quick Trans; assay: Phytotoxicity via granule application, various inert granules (Table B3.4); conditions: 8 DAT
Description: The phytotoxicity of the compound of formula I to turfgrass species was tested. The compound was applied by distribution of granule formulations of formula I, post emergence, to turfgrass species at two rates. All treatments were watered-in 1 day after application. Percentage phytotoxicity assessments were taken at various timepoints.
In Tables B3.3 and B3.4, the granular formulations tested were made by spraying the compound of formula I onto various inert granules. In each of these trials, the granule formulations were tested at a higher rate than the corresponding spray application

COCCOCc1nc(C(F)(F)F)ccc1C(=O)C1=C(O)C2CCC(C2)C1=O (stereo not shown) [Formula I, 4-Hydroxy-3-[2-(2-methoxyethoxymethyl)-6-trifluoromethylpyridine-3-carbonyl]-bicyclo[3.2.1]oct-3-en-2-one]
% phytotoxicity ([1]; DG Lite granule, no safener, 520 g ai/ha): 18.8%
% phytotoxicity ([1]; DG Lite granule, safener Cyprosulfamide (0.07%), 520 g ai/ha): 21.3%
% phytotoxicity ([1]; DG Lite granule, safener Formula 2.3 (0.07%), 520 g ai/ha): 20.0%
% phytotoxicity ([1]; DG Lite granule, safener Isoxadifen (0.07%), 520 g ai/ha): 21.3%
% phytotoxicity ([1]; Spray, no safener, 260 g ai/ha): 31.3%
% damage (Dandelion; 210 g/ha): 82.5%
% damage (Dandelion; 280 g/ha): 90%
% damage (Tall fescue; 210 g/ha): 0%
% damage (Tall fescue; 280 g/ha): 0%
% phytotoxicity (Bluegrass/fescue mix; 10 g ai/ha, 7 DAT): 0.00%
% phytotoxicity (Bluegrass/fescue mix; 10 g ai/ha, 14 DAT): 0.00%
% phytotoxicity (Bluegrass/fescue mix; 10 g ai/ha, 22 DAT): 0.00%
% phytotoxicity (Bluegrass/fescue mix; 10 g ai/ha, 29 DAT): 0.00%
% phytotoxicity (Bluegrass/fescue mix; 10 g ai/ha, 46 DAT): 0.00%
% phytotoxicity (Bluegrass/fescue mix; 20 g ai/ha, 7 DAT): 0.00%
% phytotoxicity (Bluegrass/fescue mix; 20 g ai/ha, 14 DAT): 0.00%
% phytotoxicity (Bluegrass/fescue mix; 20 g ai/ha, 22 DAT): 0.00%
% phytotoxicity (Bluegrass/fescue mix; 20 g ai/ha, 29 DAT): 0.00%
% phytotoxicity (Bluegrass/fescue mix; 20 g ai/ha, 46 DAT): 0.00%
% phytotoxicity (Bluegrass/fescue mix; 40 g ai/ha, 7 DAT): 0.00%
% phytotoxicity (Bluegrass/fescue mix; 40 g ai/ha, 14 DAT): 0.00%
% phytotoxicity (Bluegrass/fescue mix; 40 g ai/ha, 22 DAT): 0.00%
% phytotoxicity (Bluegrass/fescue mix; 40 g ai/ha, 29 DAT): 0.00%
% phytotoxicity (Bluegrass/fescue mix; 40 g ai/ha, 46 DAT): 0.00%
% phytotoxicity (Bluegrass/fescue mix; 80 g ai/ha, 7 DAT): 0.00%
% phytotoxicity (Bluegrass/fescue mix; 80 g ai/ha, 14 DAT): 0.00%
% phytotoxicity (Bluegrass/fescue mix; 80 g ai/ha, 22 DAT): 0.00%
% phytotoxicity (Bluegrass/fescue mix; 80 g ai/ha, 29 DAT): 0.00%
% phytotoxicity (Bluegrass/fescue mix; 80 g ai/ha, 46 DAT): 0.00%
% phytotoxicity (Bluegrass/fescue mix; 160 g ai/ha, 7 DAT): 0.00%
% phytotoxicity (Bluegrass/fescue mix; 160 g ai/ha, 14 DAT): 2.50%
% phytotoxicity (Bluegrass/fescue mix; 160 g ai/ha, 22 DAT): 0.00%
% phytotoxicity (Bluegrass/fescue mix; 160 g ai/ha, 29 DAT): 0.00%
% phytotoxicity (Bluegrass/fescue mix; 160 g ai/ha, 46 DAT): 0.00%
% control ([2]; Granule A (inert), 112 g ai/ha, 7 DAT): 46.70%
% control ([2]; Granule A (inert), 112 g ai/ha, 11 DAT): 63.30%
% control ([2]; Granule A (inert), 112 g ai/ha, 15 DAT): 66.70%
% control ([2]; Granule A (inert), 112 g ai/ha, 20 DAT): 63.30%
% control ([2]; Granule A (inert), 112 g ai/ha, 28 DAT): 50.00%
% control ([2]; Granule A (inert), 280 g ai/ha, 7 DAT): 56.70%
% control ([2]; Granule A (inert), 280 g ai/ha, 11 DAT): 76.70%
% control ([2]; Granule A (inert), 280 g ai/ha, 15 DAT): 78.30%
% control ([2]; Granule A (inert), 280 g ai/ha, 20 DAT): 70.00%
% control ([2]; Granule A (inert), 280 g ai/ha, 28 DAT): 51.70%
% control ([2]; Granule B (fertiliser), 112 g ai/ha, 7 DAT): 53.30%
% control ([2]; Granule B (fertiliser), 112 g ai/ha, 11 DAT): 70.00%
% control ([2]; Granule B (fertiliser), 112 g ai/ha, 15 DAT): 76.70%
% control ([2]; Granule B (fertiliser), 112 g ai/ha, 20 DAT): 75.00%
% control ([2]; Granule B (fertiliser), 112 g ai/ha, 28 DAT): 70.00%
% control ([2]; Granule B (fertiliser), 280 g ai/ha, 7 DAT): 66.70%
% control ([2]; Granule B (fertiliser), 280 g ai/ha, 11 DAT): 80.00%
% control ([2]; Granule B (fertiliser), 280 g ai/ha, 15 DAT): 85.00%
% control ([2]; Granule B (fertiliser), 280 g ai/ha, 20 DAT): 88.30%
% control ([2]; Granule B (fertiliser), 280 g ai/ha, 28 DAT): 81.70%
% control ([2]; Spray, 112 g ai/ha, 7 DAT): 63.30%
% control ([2]; Spray, 112 g ai/ha, 11 DAT): 78.30%
% control ([2]; Spray, 112 g ai/ha, 15 DAT): 81.70%
% control ([2]; Spray, 112 g ai/ha, 20 DAT): 76.70%
% control ([2]; Spray, 112 g ai/ha, 28 DAT): 76.70%
% control ([2]; Spray, 280 g ai/ha, 7 DAT): 71.70%
% control ([2]; Spray, 280 g ai/ha, 11 DAT): 86.70%
% control ([2]; Spray, 280 g ai/ha, 15 DAT): 90.00%
% control ([2]; Spray, 280 g ai/ha, 20 DAT): 91.70%
% control ([2]; Spray, 280 g ai/ha, 28 DAT): 76.70%
% phytotoxicity ([3]; Agsorb LUM GA granule, 520 g ai/ha): 20.0%
% phytotoxicity ([3]; Agsorb LUM MS granule, 520 g ai/ha): 5.8%
% phytotoxicity ([3]; Agsorb RUM GA granule, 520 g ai/ha): 18.8%
% phytotoxicity ([3]; Bio Dac granule, 520 g ai/ha): 13.3%
% phytotoxicity ([3]; DG Lite granule, 520 g ai/ha): 18.8%
% phytotoxicity ([3]; Eco Gran granule, 520 g ai/ha): 18.8%
% phytotoxicity ([3]; Non dispersing extruded granules, 520 g ai/ha): 18.8%
% phytotoxicity ([3]; Oil dry, 520 g ai/ha): 6.3%
% phytotoxicity ([3]; Spray, 260 g ai/ha): 31.3%
